The target of this experiment is T1, MavL(42-435) (Legionella pneumophila, UniProt Q5ZSJ1).
T1 construct: gene lpg2526
The note with it: 15 mM Tris-HCl pH 8.0, 50 mM NaCl, 20 °C; 300 µM ligand into 30 µM protein.

T1 sequence (Q5ZSJ1 42-435 limits assumed): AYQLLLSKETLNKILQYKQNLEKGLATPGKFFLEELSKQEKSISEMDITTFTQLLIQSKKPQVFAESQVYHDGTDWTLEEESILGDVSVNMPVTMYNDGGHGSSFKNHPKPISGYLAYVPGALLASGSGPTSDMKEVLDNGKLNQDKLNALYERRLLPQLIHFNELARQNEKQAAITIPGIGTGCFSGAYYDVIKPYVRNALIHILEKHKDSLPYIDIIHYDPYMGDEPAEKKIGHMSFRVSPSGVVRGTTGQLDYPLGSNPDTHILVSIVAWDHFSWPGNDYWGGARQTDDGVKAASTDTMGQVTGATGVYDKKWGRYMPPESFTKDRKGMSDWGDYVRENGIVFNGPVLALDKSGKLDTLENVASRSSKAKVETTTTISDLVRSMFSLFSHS

`Nc1ncnc2c1ncn2[C@@H]1O[C@H](COP(=O)(O)OP(=O)(O)OC[C@H]2OC(O)[C@H](O)[C@@H]2O)[C@@H](O)[C@H]1O` (stereo partly shown) [ADP-ribose] gave a Kd of 13 µM. That is a double-digit micromolar value.

As usually defined, the Kd is the concentration at which binding is half-saturated. A high value points to weaker binding.

For the origin of these results see article PMC8699189 (Biomolecules, 2021).
